Structures can show the parent of a compound that is named as a salt.
Molecular target: T1, human MAO-B (Homo sapiens, UniProt P27338)
T1 construct: expressed in transfected cells; host or cells: EBNA cells (transient transfection); membranes obtained by homogenisation and centrifugation at 45,000 x g
T1 sequence (P27338 1-520): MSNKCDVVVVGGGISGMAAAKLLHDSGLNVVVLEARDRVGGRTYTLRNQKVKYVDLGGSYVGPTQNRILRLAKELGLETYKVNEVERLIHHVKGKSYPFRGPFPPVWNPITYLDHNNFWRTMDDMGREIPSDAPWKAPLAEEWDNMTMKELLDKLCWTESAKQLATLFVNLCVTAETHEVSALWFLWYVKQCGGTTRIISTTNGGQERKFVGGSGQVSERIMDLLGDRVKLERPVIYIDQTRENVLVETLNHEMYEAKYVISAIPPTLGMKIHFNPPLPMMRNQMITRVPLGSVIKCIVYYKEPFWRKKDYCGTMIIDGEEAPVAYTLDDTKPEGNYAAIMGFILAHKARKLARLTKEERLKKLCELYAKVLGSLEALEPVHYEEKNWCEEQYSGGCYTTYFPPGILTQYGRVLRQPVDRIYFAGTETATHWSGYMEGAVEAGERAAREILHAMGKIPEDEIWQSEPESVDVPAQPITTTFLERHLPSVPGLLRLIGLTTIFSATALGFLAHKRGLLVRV
Experiment: MAO-B enzymatic activity assay (spectrophotometric, tyramine/Amplex Red) on membranes of transfected EBNA cells
Assay type: biochemical
Details: membranes of EBNA cells transfected with human MAO-B cDNA; substrate tyramine; 30 min preincubation at 37° C.; read-out: IC50, MAO-B inhibition
Description: The cDNA's encoding human MAO-A and MAO-B were transiently transfected into EBNA cells using the procedure described by E.-J. Schlaeger and K. Christensen (Transient Gene Expression in Mammalian Cells Grown in Serum-free Suspension Culture; Cytotechnology, 15: 1-13, 1998). After transfection, cells were homogeneised by means of a Polytron homogeneiser in 20 mM Tris HCl buffer, pH 8.0, containing 0.5 mM EGTA and 0.5 mM phenylmethanesulfonyl fluoride. Cell membranes were obtained by centrifugation at 45,000×g and, after two rinsing step with 20 mM Tris HCl buffer, pH 8.0, containing 0.5 mM EGTA, membranes were eventually re-suspended in the above buffer and aliquots stored at −80° C. until use.
MAO-A and MAO-B enzymatic activity was assayed in 96-well-plates using a spectrophotometric assay adapted from the method described by M. Zhou and N. Panchuk-Voloshina (A One-Step Fluorometric Method for the Continuous Measurement of Monoamine Oxidase Activity, Analytical Biochemistry, 253: 169-174, 1997). Briefly, membrane aliquots were incubated in 0.1 M potassium phosphate buffer, pH 7.4, for 30 min at 37° C. with or without various concentrations of the compounds. After this period, the enzymatic reaction was started by the addition of the MAO substrate tyramine together with 1 U/ml horse-radish peroxidase (Roche Biochemicals) and 80 μM N-acetyl-3,7,-dihydroxyphenoxazine (Amplex Red, Molecular Probes). The samples were further incubated for 30 min at 37° C. in a final volume of 200 μl and absorbance was then determined at a wavelength of 570 nm using a SpectraMax plate reader (Molecular Devices). Background (non-specific) absorbance was determined in the presence of 10 μM clorgyline for MAO-A or 10 μM L-deprenyl for MAO-B.
IC50 values were determined from inhibition curves obtained using nine inhibitor concentrations in duplicate, by fitting data to a four parameter logistic equation using a computer program.

| IC50 [nM] | SMILES |
| --- | --- |
| 25 | NC(=O)[C@H](CO)NC(=O)c1ccc(OCc2ccc(C(F)(F)F)cc2)c(F)c1 [Example 34, (S)-N-(1-Carbamoyl-2-hydroxy-ethyl)-3-fluoro-4-(4-trifluoromethyl-benzyloxy)-benzamide] |
| 8 | COC[C@H](C)NC(=O)c1ccc(OCc2cccc(F)c2)cc1F [Example 4, (S)-2-Fluoro-4-(3-fluoro-benzyloxy)-N-(2-methoxy-1-methyl-ethyl)-benzamide] |
| 23 | C[C@@H](CO)NC(=O)c1c(F)cc(OCc2ccc(F)cc2)cc1F [Example 45, (S)-2,6-Difluoro-4-(4-fluoro-benzyloxy)-N-(2-hydroxy-1-methyl-ethyl)-benzamide] |
| 24 | COCCNC(=O)c1c(F)cc(OCc2cccc(F)c2)cc1F [Example 51, 2,6-Difluoro-4-(3-fluoro-benzyloxy)-N-(2-methoxy-ethyl)-benzamide] |
| 5.9 | C[C@H](NC(=O)c1ccc(OCc2cccc(F)c2)cc1F)C(N)=O [Example 1, (S)-N-(1-Carbamoyl-ethyl)-2-fluoro-4-(3-fluoro-benzyloxy)-benzamide] |
| 19 | NCCNC(=O)c1ccc(OCc2ccc(C(F)(F)F)cc2)c(F)c1 [Example 36, N-(2-Amino-ethyl)-3-fluoro-4-(4-trifluoromethyl-benzyloxy)-benzamide 1:1 hydrochloride] |
| 19 | C[C@H](NC(=O)c1ccc(OCc2cccc(F)c2)c(F)c1)C(N)=O [Example 26, (S)-N-(1-Carbamoyl-ethyl)-3-fluoro-4-(3-fluoro-benzyloxy)-benzamide] |
| 5 | NC(=O)CNC(=O)c1ccc(OCc2cccc(F)c2)c(F)c1 [Example 25, 2-[4-(3-Fluorobenzyloxy)-3-fluoro-benzamido]acetamide] |
| 12 | NC(=O)[C@H](CO)NC(=O)c1ccc(OCc2cccc(F)c2)c(F)c1 [Example 28, (S)-N-(1-Carbamoyl-2-hydroxy-ethyl)-3-fluoro-4-(3-fluoro-benzyloxy)-benzamide] |
| 18 | COCCNC(=O)c1ccc(OCc2ccc(F)cc2)c(F)c1 [Example 22, 3-Fluoro-4-(4-fluoro-benzyloxy)-N-(2-methoxy-ethyl)-benzamide] |
| 7 | C[C@H](NC(=O)c1ccc(OCc2ccc(F)cc2)cc1F)C(N)=O [Example 11, (S)-N-(1-Carbamoyl-ethyl)-2-fluoro-4-(4-fluoro-benzyloxy)-benzamide] |
| 27 | NC(=O)CNC(=O)c1c(F)cc(OCc2ccc(F)cc2)cc1F [Example 39, N-Carbamoylmethyl-2,6-difluoro-4-(4-fluoro-benzyloxy)-benzamide] |
| 13 | COCCNC(=O)c1c(F)cc(OCc2ccc(F)cc2)cc1F [Example 41, 2,6-Difluoro-4-(4-fluoro-benzyloxy)-N-(2-methoxy-ethyl)-benzamide] |
| 19.5 | COCCNC(=O)c1ccc(OCc2cccc(F)c2)cc1F [Example 6, 2-Fluoro-4-(3-fluoro-benzyloxy)-N-(2-methoxy-ethyl)-benzamide] |
| 7 | C[C@H](NC(=O)c1ccc(OCc2ccc(F)cc2)c(F)c1)C(N)=O [Example 18, (S)-N-(1-Carbamoyl-ethyl)-3-fluoro-4-(4-fluoro-benzyloxy)-benzamide] |
| 25.7 | C[C@H](NC(=O)c1ccc(OCc2ccc(C(F)(F)F)cc2)cc1F)C(N)=O [Example 12, (S)-N-(1-Carbamoyl-ethyl)-2-fluoro-4-(4-trifluoromethyl-benzyloxy)-benzamide] |
| 23 | C[C@@H](NC(=O)c1ccc(OCc2cccc(F)c2)c(F)c1)C(N)=O [Example 27, (R)-N-(1-Carbamoyl-ethyl)-3-fluoro-4-(3-fluoro-benzyloxy)-benzamide] |
| 15.3 | NC(=O)CNC(=O)c1ccc(OCc2cccc(F)c2)cc1F [Example 2, 2-[4-(3-Fluorobenzyloxy)-2-fluoro-benzamido]acetamide] |
| 22 | C[C@H](NC(=O)c1c(F)cc(OCc2ccc(F)cc2)cc1F)C(N)=O [Example 37, (S)-N-(1-Carbamoyl-ethyl)-2,6-difluoro-4-(4-fluoro-benzyloxy)-benzamide] |
| 11.6 | NC(=O)[C@H](CO)NC(=O)c1ccc(OCc2cccc(F)c2)cc1F [Example 5, (S)-N-(1-Carbamoyl-2-hydroxy-ethyl)-2-fluoro-4-(3-fluoro-benzyloxy)-benzamide] |
| 11.6 | NC(=O)CNC(=O)c1ccc(OCc2ccc(F)cc2)cc1F [Example 10, 2-[4-(4-Fluorobenzyloxy)-2-fluoro-benzamido]acetamide] |
| 3.1 | NC(=O)CNC(=O)c1ccc(OCc2ccc(F)cc2)c(F)c1 [Example 19, 2-[4-(4-Fluorobenzyloxy)-3-fluoro-benzamido]acetamide] |
| 16 | NC(=O)CNC(=O)c1ccc(OCc2ccc(C(F)(F)F)cc2)c(F)c1 [Example 31, 2-[4-(4-Trifluoromethylbenzyloxy)-3-fluoro-benzamido]acetamide] |
| 11 | NC(=O)[C@H](CO)NC(=O)c1ccc(OCc2ccc(F)cc2)c(F)c1 [Example 20, (S)-N-(1-Carbamoyl-2-hydroxy-ethyl)-3-fluoro-4-(4-fluoro-benzyloxy)-benzamide] |
